Measured values as given in publication PMC4823786, “Redirection of pyruvate flux toward desired metabolic pathways through substrate channeling between pyruvate kinase and pyruvate-converting enzymes in Saccharomyces cerevisiae” (Scientific Reports, 2016).

Molecular target: T1, His6-LdhA (Leuconostoc mesenteroides, UniProt Q03VC9)
T1 construct: gene LEUM_1756; N-terminal His6 tag (pET28b), expressed in E. coli Rogetta gami2 (DE3) pLysS, Ni-NTA purified
Experiment: NADH oxidation monitored at […] nm
Format: biochemical
Conditions: 10 mM sodium pyruvate, 0.2 mM β-NADH, 50 mM Tris-HCl pH 7.0

T1 sequence (Q03VC9 entry or part of it): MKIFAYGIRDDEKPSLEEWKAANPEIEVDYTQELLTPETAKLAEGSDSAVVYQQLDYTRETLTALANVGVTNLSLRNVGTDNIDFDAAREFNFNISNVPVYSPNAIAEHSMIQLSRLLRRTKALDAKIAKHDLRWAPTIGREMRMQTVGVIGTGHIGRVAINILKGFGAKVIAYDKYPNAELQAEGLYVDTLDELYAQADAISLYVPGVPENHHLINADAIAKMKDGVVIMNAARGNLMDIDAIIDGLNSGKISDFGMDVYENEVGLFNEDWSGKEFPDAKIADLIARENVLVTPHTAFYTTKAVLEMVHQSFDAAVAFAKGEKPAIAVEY

| Structure (SMILES) | NADH oxidation monitored at 340 nm |
| --- | --- |
| CC(=O)C(=O)O [pyruvate] | reduction of pyruvate to lactate was monitored by measuring the oxidation rate of NADH |
| NC(=O)C1=CN([C@@H]2O[C@H](COP(=O)(O)OP(=O)(O)OC[C@H]3O[C@@H](n4cnc5c(N)ncnc54)[C@H](O)[C@@H]3O)[C@@H](O)[C@H]2O)C=CC1 [NADH] | reduction of pyruvate to lactate was monitored by measuring the oxidation rate of NADH |
